Test results from US20210023074A1, “TREATMENT OF DEMYELINATING DISEASES” (Victoria Link Ltd., priority 2018, published 2021).

What was measured:
Assay type in all cases: in vivo, C57BL/6 mice
[1] = tested on: infiltrating immune cells (CD45high) in brain of EAE mice; test: Immune cell infiltration into the brain of EAE mice (flow cytometry)
Protocol: On day 17, mice were started on daily treatment with vehicle only (Veh) or nalmefene (NaIM) at 0.1 or 0.03 mg/kg by i.p. injection. On day 45 after immunization to induce EAE, mice were culled and immune cells isolated from the brains. Isolation was by Percoll gradient as described in White et al. 2018. Scientific Reports. 8:259. Once isolated, cells were stained with fluorescently labelled antibodies to identify specific immune cell types and analysed by flow cytometry. All infiltrating immune cells were identified by CD45^high expression; CD4 T cells were identified as CD45^highCD4^+, and macrophages as CD45^highCD11b^+Gr-1^−. The relative number of cells is expressed as a ratio to microglia (MG), a brain resident immune cell identified as CD45^mediumCD11b^+. ***p<0.001, **p<0.01, and *p<0.05 by one-way ANOVA with Dunnett's multiple comparison test.
Experimental detail: EAE was induced in female C57BL/6 mice as described in Example 1. […] Once isolated, cells were stained with fluorescently labelled antibodies to identify specific immune cell types and analysed by flow cytometry. […] The relative number of cells is expressed as a ratio to microglia (MG), a brain resident immune cell identified as CD45^mediumCD11b+. ****p<0.0001 and **p<0.01 by one-way ANOVA with Holm-Sidak's multiple comparison test compared to vehicle.

EAE-induced weight loss = conditions: 0.1 or 0.03 mg/kg i.p. daily from day 17
Protocol: Experimental detail: Female, C57BL/6 mice were immunized subcutaneously (s.c.) in the hind flanks to induce EAE using myelin oligodendrocyte glycoprotein (MOG) peptide 35-55 (50 μg/mouse) in complete Freund's adjuvant containing heat-killed Mycobacterium tuberculosis (500 μg/mouse). In addition, pertussis toxin (200 ng/mouse) was administered intraperitoneally (i.p.) on days 0 and 2. Mice were weighed and scored daily. On day 17 (dotted line), mice were started on daily treatment with vehicle only (Veh; 10% tween and 10% DMSO in saline) or Nalmefene (NaIM) at 0.1, 0.03, or 0.01 mg/kg by i.p. injection. Nalmefene was supplied by University of Kansas, Synthetic Chemical Biology Core Laboratory, 97.6% pure by HPLC). Treatment allocation was blinded. The disease was scored from 0-5 with 0 (normal), 1 (partial tail paralysis), 2 (full tail paralysis), 3 (one hind limb paralysed or severe disability in both hind limbs), 4 (complete paralysis of both hind limbs) and 5 (moribund). This model is a standard disease model for multiple sclerosis and is described in White et al. 2018. Scientific Reports. 8:259 which is incorporated herein by reference in its entirety. […]
Experimental detail: EAE was induced in female C57BL/6 mice as described in Example 1. Mice were weighed daily and the % change in body weight calculated. […]

[2] = tested on: experimental autoimmune encephalomyelitis (EAE) mice; test: EAE model of MS, disease score, treatment from day of disease onset (score >1)
Protocol: Experimental detail: EAE was induced in female C57BL/6 mice as described in Example 1. On the day of disease onset (score >1, dotted line), mice were started on daily treatment with vehicle only (Veh) or nalmefene (NaIM) at 0.1, 0.03, 0.01, or 0.003 mg/kg by i.p. injection. […]
(§1) Experimental detail: EAE was induced in female C57BL/6 mice as described in Example 1. On the day of disease onset (score >1, dotted line), mice were treated with vehicle only (daily), nalmefene (0.01 mg/kg by i.p. injection daily), the KOR antagonist norBNI (10 mg/kg by i.p. injection weekly), both nalmefene and norBNI, or the MOR antagonist BFNA (10 mg/kg by i.p. injection weekly).
as §1, with “weekly). The peak disease score during the first EAE episode was recorded, and mice were considered recovered if they received a score <0.5 by day 23 post treatment initiation.” for “weekly).”
Experimental detail: EAE was induced in female C57BL/6 mice as described in Example 1.

[3] = 0.01 mg/kg i.p. daily from disease onset
[4] = 0.003-0.1 mg/kg i.p. daily from disease onset

With `C=C1CC[C@@]2(O)[C@H]3Cc4ccc(O)c5c4[C@@]2(CCN3CC2CC2)[C@H]1O5` [nalmefene, (4R,4aS,7aS,12bS)-3-(cyclopropylmethyl)-7-methylidene-2,4,5,6,7a,13-hexahydro-1H-4,12-methanobenzofuro[3,2-e]isoquinoline-4a,9-diol] the “number of infiltrating immune cells in brain (ratio to microglia)” value ([1]; 0.03 mg/kg i.p. daily from day 17, day 45) was “significantly reduced the number of infiltrating immune cells”, the “number of infiltrating immune cells in brain (ratio to microglia)” value ([1]; 0.03 mg/kg i.p. daily from disease onset, chronic phase (>24 days)) was “significantly reduced the number of infiltrating immune cells” and the “% change in body weight” value (EAE-induced weight loss) was “recover from EAE-induced weight loss”. For the same compound, the “disease score (recovery from paralysis)” value [2, 3] was “recovery from paralysis, which is complete”, the “peak disease score during first EAE episode” value [2, 3] was “modest but significant effect” and the “percentage of mice recovered (score <0.5 by day 23 post treatment initiation)” value [2, 3] was “all of the mice recover”. The “number of days in recovery” value [2, 4] was “enables a sustained functional recovery”, the “percentage of mice recovered (score <0.5 by day 23 post treatment initiation)” value [2, 4] was “enables full functional recovery” and the “dose showing the most rapid recovery” value ([2]; i.p. daily from disease onset, replicated in 6 independent experiments) was 0.01 mg/kg. For the same compound, the disease score ([2]; nalmefene 0.01 mg/kg i.p. daily in the presence of norBNI 10 mg/kg i.p. weekly) was “effective at reducing disease independently of the KOR”, the “number of days in recovery (sustained recovery)” value ([2]; nalmefene 0.01 mg/kg i.p. daily, clemastine fumerate 10 mg/kg i.p.) was “sustained recovery” and the “disease score (functional recovery), comparison nalmefene vs clemastine” value ([2]; nalmefene 0.01 mg/kg i.p. daily, clemastine fumerate 10 mg/kg i.p., from disease onset) was “almost complete recovery from paralysis”.
